Reference: PubChem BioAssay (NCI)
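48-hour exposure; five concentrations; linearly interpolated endpoints. The concentration for 50% growth inhibition is given as GI50. TGI denotes the concentration required for complete inhibition of growth.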

Legend:
Assay in all cases: inhibition of tumour cell growth, NCI panel, 48 h
[1] = tested on: SF-539 CNS
[2] = tested on: SK-MEL-5 melanoma
[3] = tested on: NCI-H23 lung
[4] = tested on: MDA-N
[5] = tested on: A549 NSCLC
[6] = tested on: SK-OV-3 ovarian
[7] = tested on: NCI-H226 lung
[8] = tested on: SF-295 CNS
[9] = tested on: SNB-75 CNS
[10] = tested on: HS 578T breast

Structure (SMILES) | TGI [1] [µM] | TGI [2] [µM] | TGI [3] [µM] | TGI [4] [µM] | TGI [5] [µM] | TGI [6] [µM] | TGI [7] [µM] | TGI [8] [µM] | TGI [9] [µM] | TGI [10] [µM] | GI50 [1] [nM] | GI50 [2] [nM] | GI50 [3] [nM] | GI50 [10] [nM] | GI50 [5] [nM] | GI50 [6] [nM] | GI50 [7] [nM] | GI50 [9] [nM] | GI50 [8] [nM]
S=C1NC2=C(CSC/C2=C\c2ccccc2)C(c2ccccc2)N1 (stereo not drawn) | > 100 | 24.5 | > 100 | > 100 | > 100 | > 100 | > 100 | 89.1 |  |  |  |  |  |  |  |  |  |  | 
CSc1nc2c(ncn2C2OC(CO)C(O)C(O)C2O)c(=O)[nH]1 (stereo not drawn) | > 100 | > 100 | > 100 |  | > 100 | > 100 | > 100 | > 100 | > 100 |  |  |  |  |  |  |  |  |  | 
C=C1C(=O)C23C(O)CC4C5(C)CCCC4(C(O)OC5)C2C(OC(C)=O)CC1C3O (stereo not drawn) | 25.8 | 31.1 | 19.3 |  | 51.5 | 37.1 | 37.1 | 41.4 | 16.6 |  |  |  |  |  |  |  |  |  | 
O=C(NN1C(=O)CSC1c1cccc(F)c1)c1ccncc1 (stereo not drawn) | > 100 | > 100 | > 100 |  | > 100 | > 100 |  | > 100 | > 100 |  |  |  |  |  |  |  |  |  | 
Cc1cc(C)c(/C=C(\C(=C/c2c(C)cc(C)cc2C)[N+](=O)[O-])[N+](=O)[O-])c(C)c1 | > 100 | > 100 | > 100 | > 100 | > 100 | > 100 |  | > 100 | > 100 |  |  |  |  |  |  |  |  |  | 
O=S1(=O)c2cnccc2NC(=NCc2ccccc2)N1c1ccccc1 | > 100 | > 100 | > 100 |  | > 100 | > 100 | > 100 | > 100 | > 100 | > 100 |  |  |  |  |  |  |  |  | 
O=C(O)CCCCCCCCC(=O)O | > 79.3 | > 500 | > 500 |  | > 500 | > 500 | > 500 | > 500 | > 79.3 |  |  |  |  |  |  |  |  |  | 
COc1ccc(-n2nc(C)c3c(Nc4ccc(NC(=O)Nc5ccc(Cl)c(C(F)(F)F)c5)cc4)ncnc32)cc1 | 3.2 | 3.23 | 3.95 |  | 6.31 | 6.27 | 6.08 | 3.49 | 4.55 | 4.2 | 1240 | 1720 | 1690 | 1580 | 1880 | 2420 | 2210 | 553 | 1580
O=[N+]([O-])c1ccc2c(c1)c(N=NC(=S)Nc1ccc(Cl)cc1)c(O)n2CN1CCOCC1 | 26.4 | 17.7 | 9.44 |  | 20.8 | 26.2 | 23.7 | 18.3 | 25.8 | 28.4 |  |  |  |  |  |  |  |  | 
COc1cc(C2c3cc4c(cc3[C@@H](Nc3ccc5c(c3)OCO5)C3COC(=O)[C@H]23)OCO4)cc(OC)c1O (stereo partly drawn) | 2.41 | 2.64 | 4.07 |  | 2.56 | 16.3 | 2.06 | 5.3 |  |  |  |  |  |  |  |  |  |  | 
c1ccc2c(c1)CCCC/C2=N/OCC1CO1 (stereo not drawn) | > 100 | > 100 | > 100 |  | > 100 |  | 90.9 | > 100 | > 100 |  |  |  |  |  |  |  |  |  | 
O=C1c2cccc(O)c2C(=O)c2c(O)cc(CO)cc21 |  | 30.7 | > 100 |  | > 100 | > 100 | > 100 | > 100 | > 100 |  |  |  |  |  |  |  |  |  | 
C[C@H]1OC(=O)[C@@H]2N=NN(Cc3ccccc3)[C@H]12 | > 100 | > 100 | > 100 | > 100 | > 100 | > 100 |  | > 100 |  |  |  |  |  |  |  |  |  |  | 
COc1cccc2c1OCC1Cc3ccccc3OC21 (stereo not drawn) | > 100 | 30.8 | > 100 | 64.8 | > 100 | > 100 | > 100 | > 100 |  |  |  |  |  |  |  |  |  |  | 
C/C(=C\CO)CC/C=C(\C)CNc1ccc([N+](=O)[O-])cc1 | > 100 | 25.6 | 57.7 |  | > 100 | > 100 | > 100 | > 100 | > 100 | 71.6 |  |  |  |  |  |  |  |  | 
Nc1ccc(-c2nn3c(COc4ccc(Cl)cc4)nnc3s2)cc1 | > 100 | > 100 | > 100 |  | > 100 | > 100 | > 100 | > 100 | > 100 | > 100 | 34500 |  |  |  |  |  | 7190 |  | 
COc1ccc(/C=N/n2c(C)nc3c(sc(=S)n3-c3ccccc3)c2=O)cc1 | > 100 | > 100 | > 100 |  | > 100 | > 100 | > 100 | > 100 | 41.4 |  |  |  |  |  |  |  |  |  | 
C(=C\c1ccccc1)/COc1ccccc1C(N1CCOCC1)n1nc2ccccc2n1 (stereo not drawn) | 6.62 | 13.8 | 24.6 |  | > 89.2 | 81.1 | 28.7 | 28.7 | 16.9 | 41.2 |  |  |  |  |  |  |  |  | 
CC(=O)Oc1c(C)c(C)c2c(c1C)CCC(C)(CC(=O)OCCCCCCCCCCC[P+](c1ccccc1)(c1ccccc1)c1ccccc1)O2 (stereo not drawn) | 1.47 | 0.359 |  |  |  | 0.932 | 25.4 | 1.09 |  | 3.28 | 411 | 191 |  | 413 |  | 264 | 386 |  | 264
